The record followed here is patent US20090163548A1, “Method of using and comopositions comprising immunomodulatory compounds for the treatment and management of myeloproliferative diseases” (priority 2004, published 2009).

Each structure is given as a SMILES string. pIC50: −log10 of the molar value.

The subject of series [1] is TNF-α. In words: Inhibition of TNF-α production following LPS-stimulation of human PBMC. The series is classed as cell-based. To be noted: LPS-stimulated, read-out: IC50 for inhibiting production of TNF-α following LPS-stimulation of PBMC. The text has this:
(§1) Inhibition of TNF-α production following LPS-stimulation of human PBMC and human whole blood by 3-(4-amino-1-oxo-1,3-dihydro-isoindol-2-yl)-piperidine-2,6-dione or thalidomide was investigated in vitro (Muller et al., Bioorg. Med. Chem. Lett. 9:1625-1630, 1999).

Series [2] relates to TNF-α. Put plainly: Inhibition of TNF-α production following LPS-stimulation of human whole blood. The series is classed as cell-based. To be noted: LPS-stimulated, read-out: IC50 for inhibiting production of TNF-α following LPS-stimulation of human whole blood.
Excerpt: as §1

The subject of series [3] is various cytokines. In words: In vitro studies of effects on the production of various cytokines, comparison with thalidomide. To be noted: in all in vitro cytokine production studies. The series is classed as cell-based. The text has this:
The pharmacological properties of 3-(4-amino-1-oxo-1,3-dihydro-isoindol-2-yl)-piperidine-2,6-dione, including activity comparisons with thalidomide, have been characterized in in vitro studies. Studies examined the effects of 3-(4-amino-1-oxo-1,3-dihydro-isoindol-2-yl)-piperidine-2,6-dione or thalidomide on the production of various cytokines. […] In addition, a safety pharmacology study of 3-(4-amino-1-oxo-1,3-dihydro-isoindol-2-yl)-piperidine-2,6-dione has been conducted in dogs and the effects of 3-(4-amino-1-oxo-1,3-dihydro-isoindol-2-yl)-piperidine-2,6-dione on ECG parameters were examined further as part of three repeat-dose toxicity studies in primates.

For series [4] the following is noted: dog, in vivo. The protocol: The effects of 3-(4-amino-1-oxo-1,3-dihydro-isoindol-2-yl)-piperidine-2,6-dione on cardiovascular and respiratory function were investigated in anesthetized dogs. Two groups of Beagle dogs (2/sex/group) were used. One group received three doses of vehicle only and the other received three ascending doses of 3-(4-amino-1-oxo-1,3-dihydro-isoindol-2-yl)-piperidine-2,6-dione (2, 10, and 20 mg/kg). In all cases, doses of 3-(4-amino-1-oxo-1,3-dihydro-isoindol-2-yl)-piperidine-2,6-dione or vehicle were successively administered via infusion through the jugular vein separated by intervals of at least 30 minutes.
The only statistically significant difference between the vehicle and treatment groups was a small increase in arterial blood pressure (from 94 mmHg to 101 mmHg) following administration of the low dose of 3-(4-amino-1-oxo-1,3-dihydro-isoindol-2-yl)-piperidine-2,6-dione.

As to `Nc1cccc2c1CN(C1CCC(=O)NC1=O)C2=O` (stereo not shown) [3-(4-amino-1-oxo-1,3-dihydro-isoindol-2-yl)-piperidine-2,6-dione], the pIC50 in series [1] is about 7.00. Further, in series [2], the pIC50 was about 6.32. Further, in series [3], the “Potency relative to thalidomide” value is “at least 50 times”. Also, in series [4] (both, Beagle, 2 mg/kg), the “Arterial blood pressure after administration” value was determined as 101 mmHg and the “Duration of the increase in arterial blood pressure” value was “approximately 15 minutes”. In addition, in series [4], the “Deviations in femoral blood flow, respiratory parameters, and Qtc interval” value is “not considered treatment-related”; the “Increase in arterial blood pressure at higher doses” value is on record as “not seen at higher doses”.
